Assay results: patent US10336775B2 (Asceneuron SA, priority 2014, dated 2019)

These compounds were tested against His-Tagged hOGA (human O-GlcNAcase) (Homo sapiens (Human), UniProt O60502) (assay: Human O-GlcNAcase enzyme inhibition assay (Example B01)). Settings: not given.
Assay type: biochemical

Sequence of His-Tagged hOGA (human O-GlcNAcase) (O60502 whole entry): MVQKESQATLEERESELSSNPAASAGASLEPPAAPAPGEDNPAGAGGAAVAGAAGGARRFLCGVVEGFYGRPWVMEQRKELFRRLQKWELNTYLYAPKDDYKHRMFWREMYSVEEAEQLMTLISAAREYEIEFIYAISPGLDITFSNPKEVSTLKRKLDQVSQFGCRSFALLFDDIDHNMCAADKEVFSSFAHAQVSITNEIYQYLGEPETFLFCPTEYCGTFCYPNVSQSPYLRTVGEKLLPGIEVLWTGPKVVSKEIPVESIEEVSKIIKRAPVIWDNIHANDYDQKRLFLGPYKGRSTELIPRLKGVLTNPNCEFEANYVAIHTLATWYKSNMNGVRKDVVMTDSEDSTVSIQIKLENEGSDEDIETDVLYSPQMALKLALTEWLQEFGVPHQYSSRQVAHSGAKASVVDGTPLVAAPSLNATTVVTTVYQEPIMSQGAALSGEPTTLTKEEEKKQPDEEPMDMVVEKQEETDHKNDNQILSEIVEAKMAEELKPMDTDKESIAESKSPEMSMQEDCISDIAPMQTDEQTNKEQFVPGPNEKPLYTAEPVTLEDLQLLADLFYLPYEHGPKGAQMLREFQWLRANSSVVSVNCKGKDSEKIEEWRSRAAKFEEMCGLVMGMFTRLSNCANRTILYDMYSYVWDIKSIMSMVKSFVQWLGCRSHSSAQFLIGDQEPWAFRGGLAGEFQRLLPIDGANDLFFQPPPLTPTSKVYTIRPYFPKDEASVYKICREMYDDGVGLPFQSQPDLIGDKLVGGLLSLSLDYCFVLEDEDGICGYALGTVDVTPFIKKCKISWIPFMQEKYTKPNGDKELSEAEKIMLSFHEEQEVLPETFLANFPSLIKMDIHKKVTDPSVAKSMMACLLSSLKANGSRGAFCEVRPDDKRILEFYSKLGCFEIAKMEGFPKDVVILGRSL

| Compound | IC50 [M] |
| --- | --- |
| CC(c1ccc2c(c1)OCO2)N1CCN(c2ccc([N+](=O)[O-])cn2)CC1 (stereo not shown) [Example 55, 1-(1-(benzo[d][1,3]dioxol-5-yl)ethyl)-4-(5-nitropyridin-2-yl)piperazine] | 5e-08 to 2e-07 |

Same assay, conditions: OGA IC50 (M), OGA enzyme inhibition assay; activity range classes defined in μM

| Compound | IC50 [M] |
| --- | --- |
| CC(c1ccc2cccnc2c1)N1CCN(c2ncccn2)CC1 (single isomer, unassigned) [Example 95, (S)-7-(1-(4-(pyrimidin-2-yl)piperazin-1-yl)ethyl)quinolone or (R)-7-(1-(4-(pyrimidin-2-yl)piperazin-1-yl)ethyl)quinoline] | 5e-08 to 2e-07 |
| CC(c1ccc2nccnc2c1)N1CCN(c2nc3cnccc3s2)CC1 (racemic) [Example 140, 2-(4-(1-(quinoxalin-6-yl)ethyl)piperazin-1-yl)thiazolo[4,5-c]pyridine] | 2e-07 to 1e-06 |
| CC(=O)Nc1cnc(N2CCN(C(C)c3ccc4c(c3)OCO4)CC2)nc1 (racemic) [Example 72, N-(2-(4-(1-(benzo[d][1,3]dioxol-5-yl)ethyl)piperazin-1-yl)pyrimidin-5-yl)acetamide] | < 5e-08 |

Same assay, conditions: OGA enzyme inhibition assay; activity range classes defined in μM; read-out: OGA IC50

| Compound | IC50 [M] |
| --- | --- |
| Cc1cnc2cc(C(C)N3CCN(c4ncccn4)CC3)ccc2c1 (racemic) [Example 201, 3-Methyl-7-(1-(4-(pyrimidin-2-yl)piperazin-1-yl)ethyl)quinoline] | 1e-06 to 1e-05 |
| CC(c1ccc2c(c1)OCO2)N1CCN(c2ncc(C(N)=O)s2)CC1 (racemic) [Example 48, 2-(4-(1-(Benzo[d](1,3)dioxol-5-yl)ethyl)piperazin-1-yl)thiazole-5-carboxamide] | < 5e-08 |
| Cc1csc(C2CCN(C(C)c3ccc4c(c3)OCO4)CC2)n1 (racemic) [Example 1, 2-(1-(1-(Benzo[d][1,3]dioxol-5-yl)ethyl)piperidin-4-yl)-4-methylthiazole] | 2e-07 to 1e-06 |
| C[C@@H](c1ccc2c(c1)OCO2)N1CCN(c2nnc(NC(=O)CCO)s2)CC1 [Example 171] | < 5e-08 |
| CNC(=O)c1cnc(N2CCN([C@@H](C)c3ccc4c(c3)OCO4)CC2)nc1 [Example 134, (S) 2-(4-(1-(benzo[d][1,3]dioxol-5-yl)ethyl)piperazin-1-yl)-N-methylpyrimidine-5-carboxamide] | < 5e-08 |
| CC(=O)Nc1cnc(N2CCN(C(C)c3ccc4c(c3)OC(F)(F)O4)CC2)nc1 (racemic) [Example 118] | 2e-07 to 1e-06 |
| C[C@@H](c1ccc2c(c1)OCO2)N1CCN(c2ncc(NC(=O)CCO)cn2)CC1 [Example 177, (S)-N-(2-(4-(1-(benzo[d][1,3]dioxol-5-yl)ethyl)piperazin-1-yl)pyrimidin-5-yl)-3-hydroxypropanamide] | < 5e-08 |
| CC(c1ccc2c(c1)OCO2)N1CCN(c2ncc(CO)s2)CC1 (racemic) [Example 28, (2-(4-(1-(Benzo[d][1,3]dioxol-5-yl)ethyl)piperazin-1-yl)thiazol-5-yl)methanol] | 5e-08 to 2e-07 |
| CC(C)C(=O)Nc1nnc(N2CCN(C(C)c3ccc4c(c3)OCO4)CC2)s1 (racemic) [Example 107, N-(5-(4-(1-(benzo[d][1,3]dioxol-5-yl)ethyl)piperazin-1-yl)-1,3,4-thiadiazol-2-yl)isobutyramide] | < 5e-08 |
| Cc1nnc(C2CCN(C(C)c3ccc4c(c3)OCO4)CC2)o1 (racemic) [Example 2, 2-(1-(1-(benzo[d][1,3]dioxol-5-yl)ethyl)piperidin-4-yl)-5-methyl-1,3,4-oxadiazole] | 2e-07 to 1e-06 |
| CC(=O)Nc1cnc(N2CCN(C(C)c3ccc4c(Cl)ccnc4c3)CC2)nc1 (racemic) [Example 101, N-(2-(4-(1-(4-chloroquinolin-7-yl)ethyl)piperazin-1-yl)pyrimidin-5-yl)acetamide] | 2e-07 to 1e-06 |
| C[C@@H](c1ccc2c(c1)OCO2)N1CCN(c2nnc(N)s2)CC1 [Example 132, (S)-5-(4-(1-(benzo[d][1,3]dioxol-5-yl)ethyl)piperazin-1-yl)-1,3,4-thiadiazol-2-amine] | < 5e-08 |
| CCc1csc(N2CCN(C(C)c3ccc4c(c3)OCO4)CC2)n1 (racemic) [Example 19, 2-(4-(1-(Benzo[d][1,3]dioxol-5-yl)ethyl)piperazin-1-yl)-4-ethylthiazole] | 2e-07 to 1e-06 |
| N-(2-(4-(1-(3,4-Dichlorophenyl)ethyl)piperazin-1-yl)thiazol-5-yl)acetamide [Example 87] | 1e-06 to 1e-05 |
| COc1cccc(N2CCN(C(C)c3ccc4c(c3)OCCO4)CC2)n1 (racemic) [Example 200] | 5e-08 to 2e-07 |
| CCOC(=O)c1cnc(N2CCN(C(C)c3ccc4c(c3)OCO4)CC2)s1 (racemic) [Example 27, Ethyl 2-(4-(1-(benzo[d][1,3]dioxol-5-yl)ethyl)piperazin-1-yl)thiazole-5-carboxylate] | 2e-07 to 1e-06 |
| COc1ccnc(N2CCN(C(C)c3ccc4c(c3)OCO4)CC2)n1 (racemic) [Example 39, 2-(4-(1-(Benzo[d][1,3]dioxol-5-yl)ethyl)piperazin-1-yl)-4-methoxypyrimidine] | 5e-08 to 2e-07 |
| CC(c1ccc2c(c1)OCO2)N1CCN(c2nc(C(=O)O)cs2)CC1 (racemic) [Example 18, 2-(4-(1-(Benzo[d][1,3]dioxol-5-yl)ethyl)piperazin-1-yl)thiazole-4-carboxylic acid] | 5e-08 to 2e-07 |

| Compound | IC50 [M] |
| --- | --- |
| CC(=O)Nc1nccc(N2CCN(C(C)c3ccc4c(c3)OCO4)CC2)n1 (racemic) [Example 54, N-(4-(4-(1-(Benzo[d][1,3]dioxol-5-yl)ethyl)piperazin-1-yl)pyrimidin-2-yl)acetamide] | 5e-08 to 2e-07 |
| CC(=O)Nc1cnc(N2CCN(C(C)c3ccc4nonc4c3)CC2)nc1 (racemic) [Example 121, N-(2-(4-(1-(benzo[c][1,2,5]oxadiazol-5-yl)ethyl)piperazin-1-yl)pyrimidin-5-yl)acetamide] | 1e-06 to 1e-05 |
| CC(c1ccc2c(c1)OCO2)N1CCN(c2nc3ccccc3s2)CC1 (racemic) [Example 130, 2-(4-(1-(benzo[d][1,3]dioxol-5-yl)ethyl)piperazin-1-yl)benzo[d]thiazole] | 2e-07 to 1e-06 |
| Cc1noc(C2CCN(C(C)c3ccc4c(c3)OCO4)CC2)n1 (racemic) [Example 4, 5-(1-(1-(Benzo[d][1,3]dioxol-5-yl)ethyl)piperidin-4-yl)-3-methyl-1,2,4-oxadiazole] | 2e-07 to 1e-06 |
| CC(c1ccc2c(c1)OCO2)N1CCN(c2ncc3ccccc3n2)CC1 (racemic) [Example 119, 2-(4-(1-(benzo[d][1,3]dioxol-5-yl)ethyl)piperazin-1-yl)quinazoline] | 5e-08 to 2e-07 |
| CC(c1ccc2c(c1)OCO2)N1CCN(c2cnc(I)nc2)CC1 (racemic) [Example 8, -5-(4-(1-(benzo[d][1,3]dioxol-5-yl)ethyl)piperazin-1-yl)-2-iodopyrimidine] | 5e-08 to 2e-07 |
| CC(=O)Nc1cnc(N2CCN(C(C)c3ccc4c(c3)OCCO4)CC2)nc1 (racemic) [Example 96, N-(2-(4-(1-(2,3-Dihydrobenzo[b][1,4]dioxin-6-yl)ethyl)piperazin-1-yl)pyrimidin-5-yl)acetamide] | < 5e-08 |
| COc1ccc(-c2csc(N3CCN(C(C)c4ccc5c(c4)OCO5)CC3)n2)cc1 (racemic) [Example 6, 2-(4-(1-(Benzo[d][1,3]dioxol-5-yl)ethyl)piperazin-1-yl)-4-(4-methoxyphenyl)thiazole] | 1e-06 to 1e-05 |
| N-((2-(4-(1-(benzo[d][1,3]dioxol-5-yl)ethyl)piperazin-1-yl)thiazol-4-yl)methyl)acetamide [Example 85] | < 5e-08 |
| CCNc1nnc(N2CCN(C(C)c3ccc4c(c3)OCO4)CC2)s1 (racemic) [Example 112, 5-(4-(1-(benzo[d][1,3]dioxol-5-yl)ethyl)piperazin-1-yl)-N-ethyl-1,3,4-thiadiazol-2-amine] | 5e-08 to 2e-07 |
| CC(=O)Nc1cnc(N2CCN(C(C)c3ccc4c(c3)OCCCO4)CC2)nc1 (racemic) [Example 126, N-(2-(4-(1-(3,4-dihydro-2H-benzo[b][1,4]dioxepin-7-yl)ethyl)piperazin-1-yl)pyrimidin-5-yl)acetamide] | 2e-07 to 1e-06 |
| CCOC(=O)c1cnc(N2CCN(C(C)c3ccc4c(c3)OCO4)CC2)nc1 (racemic) [Example 51, Ethyl 2-(4-(1-(benzo[d][1,3]dioxol-5-yl)ethyl)piperazin-1-yl)pyrimidine-5-carboxylate] | 5e-08 to 2e-07 |
| CC(c1ccc2nccnc2c1)N1CCN(c2ncc(F)cn2)CC1 (racemic) [Example 172, 6-(1-(4-(5-fluoropyrimidin-2-yl)piperazin-1-yl)ethyl)quinoxaline] | 5e-08 to 2e-07 |
| CC(c1ccc2c(c1)OCO2)N1CCN(c2nc(C(=O)N(C)C)cs2)CC1 (racemic) [Example 42, 2-(4-(1-(benzo[d][1,3]dioxol-5-yl)ethyl)piperazin-1-yl)-N,N-dimethylthiazole-4-carboxamide] | 2e-07 to 1e-06 |
| C[C@@H](c1ccc2c(c1)OCO2)N1CCN(c2nc3c(s2)CNCC3)CC1 [Example 182, (S)-2-(4-(1-(benzo[d][1,3]dioxol-5-yl)ethyl)piperazin-1-yl)-4,5,6,7-tetrahydrothiazolo[5,4-c]pyridine] | < 5e-08 |
| CC(c1ccc2c(c1)OCO2)N1CCN(c2ncc(C(=O)N(C)C)cn2)CC1 (racemic) [Example 99, 2-(4-(1-(benzo[d][1,3]dioxol-5-yl)ethyl)piperazin-1-yl)-N,N-dimethylpyrimidine-5-carboxamide] | < 5e-08 |
| CC(=O)Nc1nnc(N2CCN(C(C)c3ccc4c(c3)OCCO4)CC2)s1 (racemic) [Example 97, N-(5-(4-(1-(2,3-Dihydrobenzo[b][1,4]dioxin-6-yl)ethyl)piperazin-1-yl)-1,3,4-thiadiazol-2-yl)acetamide] | < 5e-08 |

Same assay, conditions: measured according to Example B01

| Compound | OGA inhibitor activity (in words) |
| --- | --- |
| CC(c1ccc2c(c1)OCO2)N1CCN(c2ncc(C(N)=O)s2)CC1 (racemic) [Example 48, 2-(4-(1-(Benzo[d](1,3)dioxol-5-yl)ethyl)piperazin-1-yl)thiazole-5-carboxamide] | very potent OGA inhibitors |
| CNC(=O)c1cnc(N2CCN([C@@H](C)c3ccc4c(c3)OCO4)CC2)nc1 [Example 134, (S) 2-(4-(1-(benzo[d][1,3]dioxol-5-yl)ethyl)piperazin-1-yl)-N-methylpyrimidine-5-carboxamide] | very potent OGA inhibitors |
| C[C@@H](c1ccc2c(c1)OCO2)N1CCN(c2nnc(N)s2)CC1 [Example 132, (S)-5-(4-(1-(benzo[d][1,3]dioxol-5-yl)ethyl)piperazin-1-yl)-1,3,4-thiadiazol-2-amine] | very potent OGA inhibitors |
| COc1ccc(C(C)N2CCN(c3ccc(Br)c(OC)n3)CC2)cc1OC (stereo not shown) [compound of example 72 of WO 2005/110982, reference compound] | not active as OGA inhibitors |
| CC(=O)Nc1cnc(N2CCN(C(C)c3ccc4c(c3)OCO4)CC2)nc1 (racemic) [Example 72, N-(2-(4-(1-(benzo[d][1,3]dioxol-5-yl)ethyl)piperazin-1-yl)pyrimidin-5-yl)acetamide] | very potent OGA inhibitors |
| CC(c1ccc2c(c1)OCCO2)N1CCN(c2ncccn2)CC1 (single isomer, unassigned) [Example 34] | very potent OGA inhibitors |
| C[C@@H](c1ccc2c(c1)OCO2)N1CCN(c2nc3c(s2)CNCC3)CC1 [Example 182, (S)-2-(4-(1-(benzo[d][1,3]dioxol-5-yl)ethyl)piperazin-1-yl)-4,5,6,7-tetrahydrothiazolo[5,4-c]pyridine] | very potent OGA inhibitors |
